Data published in patent US10308631B2, “Selective anti-cancer compounds” (NATIONAL UNIVERSITY OF SINGAPORE, priority 2015, dated 2019).

Tests used:
[1] = tested on: BJ Normal; experiment: MTT growth inhibition (GI50); format: cell-based; conditions: Homo sapiens, normal cell line, 72 h
Procedure: (§1) Having shown that Compound 1 and its derivatives are effective against HeLa cervical cancer cells and human fibroblast BJ cell lines, Compound 1 was then tested against a panel of thirty different human cancer cells lines derived from gastric, colon, liver, breast, lung and cervical tumours and five different human normal cell lines, which were normal fibroblast cell lines (BJ normal, IMR90, WI38) and retinal pigmented epithelium cell lines (ARPE-19, hTert-immortalized RPE-1).
(§2) The cell lines detailed in Table 2, below, were cultured in the media shown and treated with Compound 1 at a range of different concentrations (from 0.1 μM to 10 μM) for 72 h in triplicate and a mean concentration value for Compound 1 to achieve 50% growth inhibition (GI50) in each cell line was determined by use of the MTT assay.
(§3) The MTT assay was performed by adding thiazolyl blue tetrazolium bromide (MTT reagent, Invitrogen) at a concentration of 0.5 mg/mL to each cell culture and the resulting mixture incubated for 4 h at 37° C. The medium was then removed, and the blue dye remaining in each well was dissolved in DMSO by mixing with a microplate mixer. The absorbance of each well at 540 nm and 660 nm was measured using a microplate reader (Benchmark plus, BIO-RAD). The optical density (OD) values were calculated by subtracting the absorbance at 660 nm from the absorbance at 540 nm. Mean OD values from control cells containing only DMSO treated wells were set as 100%. The resulting GI50 values (in μM) are set out in Table 2 below.

[2] = tested on: NCC24; experiment: MTT growth inhibition (GI50); format: cell-based; conditions: Homo sapiens, NCC24, gastric cancer, 72 h
Procedure: as §1, §2, §3

[3] = tested on: SGCC-GC38; experiment: MTT growth inhibition (GI50); format: cell-based; conditions: Homo sapiens, SGCC-GC38, gastric cancer, 72 h
Procedure: as §1, §2, §3

[4] = tested on: NCC59; experiment: MTT growth inhibition (GI50); format: cell-based; conditions: Homo sapiens, NCC59, gastric cancer, 72 h
Procedure: as §1, §2, §3

[5] = tested on: MCF7; experiment: MTT growth inhibition (GI50); format: cell-based; conditions: Homo sapiens, MCF7, breast cancer, 72 h
Procedure: as §1, §2, §3

[6] = tested on: SNU-16; experiment: MTT growth inhibition (GI50); format: cell-based; conditions: Homo sapiens, SNU-16, gastric cancer, 72 h
Procedure: as §1, §2, §3

[7] = tested on: IM95; experiment: MTT growth inhibition (GI50); format: cell-based; conditions: Homo sapiens, IM95, gastric cancer, 72 h
Procedure: as §1, §2, §3

[8] = tested on: SNU1750; experiment: MTT growth inhibition (GI50); format: cell-based; conditions: Homo sapiens, SNU1750, gastric cancer, 72 h
Procedure: as §1, §2, §3

[9] = tested on: HCT116; experiment: MTT growth inhibition (GI50); format: cell-based; conditions: Homo sapiens, HCT-116, HCT116, colon cancer, 72 h
Procedure: as §1, §2, §3

[10] = tested on: AGS; experiment: MTT growth inhibition (GI50); format: cell-based; conditions: Homo sapiens, gastric cancer, 72 h
Procedure: as §1, §2, §3

[11] = tested on: isogenic non-transformed (normal) BJ cells; experiment: PI staining and FACS analysis, sub-G1 cell death; format: cell-based, human; conditions: 48 h
Procedure: FIG. 5A is a histogram showing the ability of Compound 1 (a131) and its derivatives Compound 2 (a156), Compound 16 (b5), Compound 17 (b9), all in Group 1; Compound 29 (a219), Compound 13 (b12), Compound 11 (b15), Compound 12 (b16), Compound 25 (a166), all in Group 2; and Compound 3 (a159) from Group 3, to induce cancer selective cell death. Isogenic non-transformed (normal) and oncogene-transformed BJ cells were treated with each compound for 48 h and cells were stained with propidium iodide (PI) and subjected to FACS analysis. The percentage of cells in sub-G1 phase is indicative of the extent of cell death. […] In contrast, the ability of the compounds in Groups 2 and 3 to induce cancer selective cell death was markedly compromised (or reduced).
The Compounds 25 (a166) and 3 (a159) were selected from Group 2 and Group 3, respectively. Isogenic non-transformed normal and oncogene-transformed BJ cells were treated with or without 0.3 μM or 0.6 μM Compound 3 (a159) alone or together with 1.25 μM Compound 25 (a166) for 48 h. Cells were stained with propidium iodide (PI) and subjected to FACS analysis.
Isogenic non-transformed and oncogene-transformed human fibroblast BJ cell lines were cultured in DMEM supplemented with 10% FBS. The cells were treated with Compound 1 (2.5 μM, DMSO). 48 h after treatment, the cells were fixed with ethanol at −30° C. overnight and stained with 20 μg/mL propidium iodide (PI) and 10 μg/mL RNase A for 30 min. These cells were then subjected to flow cytometry (FACS) analysis using MACSQuant (Miltenyi Biotec) to count the percentage of apoptotic cells in sub-G1 peak.
The above procedure was repeated for Group 1 Compounds 2, 16 and 17, Group 2 Compounds 29, 13, 11, 12 and 25 at a concentration of 10 μM, and Group 3 Compound 3 at a concentration of 5 μM.
Isogenic non-transformed normal and oncogene-transformed BJ cells were cultured as in Biology Example 3. The cells were treated with a combination of Compound 3 (Group 3, at a concentration of 0.3 μM or 0.6 μM), and Compound 25 (Group 2, at a concentration of 1.25 μM) for 48 hours. Controls using DMSO, Compound 3 and Compound 25 alone (at the concentrations mentioned above) were also performed.

`N#C/C(=C\c1cccc2cnccc12)c1c[nH]c2ccccc12` [Compound 1, (Z)-2-(1H-indol-3-yl)-3-(isoquinolin-5-yl)acrylonitrile] gave a GI50 [1] of 8100 nM, a GI50 [2] of 1200 nM and a GI50 [3] of 1900 nM. The GI50 [4] was 900 nM, the GI50 [5] was 1200 nM and the GI50 [6] was 1000 nM. For the same compound, the GI50 [7] was 1000 nM, the GI50 [8] was 700 nM and the GI50 [9] was 1800 nM. For the same compound, the GI50 [10] was 1100 nM.
In the case of `N#C/C(=C\c1cccc2ncccc12)c1c[nH]c2ccccc12` [Compound 3, (Z)-2-(1H-indol-3-yl)-3-(quinolin-5-yl)acrylonitrile], the “cell death (population of cells in sub-G1)” value ([11]; normal BJ cells (FIG. 5A)) is reported as “significantly induced cell death” and the cell death ([11]; Compound 3 0.3 or 0.6 μM, Compound 25 1.25 μM, alone or in combination) is reported as “did not lead to a significant increase in cell death”.
